Each structure is given as a SMILES string.

The record followed here is patent publication US11590109B2 (priority 2016, dated 2023).

Data set [1] concerns H7N9 (influenza virus). The settings on record: H7N9 in host cell MDCK.
In data set [2] the test system is EV71 (hand-foot-and-mouth virus). The settings on record: EV71 in host cell RD.
In data set [3] the test system is influenza virus. Description: microbe, parasite or virus in culture. Type of data set: cell-based. The note with it: unidentified influenza virus, MDCK, read-out: inhibitory effect on influenza virus.
Data set [4] has as its system Dengue Virus 2 (type 2 dengue virus). The data set is described as follows: Inhibition of viral replication (CPE) at cellular level, Dengue Virus 2 in Vero. Type of data set: cell-based. The note with it: Dengue Virus 2 in host cell Vero; for IC50: CPE. The source says:
Activity Test for Inhibition of Viral Replication at Cellular Level […]
The present inventors tested inhibitory effects of the compound of the present invention on cytopathic effects (CPE) caused by viral infection on mammalian cells.
Half-inhibitory concentration IC50 and half toxic concentration TC50 of the compound against Dengue Virus 2 (type 2 dengue virus) in host cell Vero (African green monkey kidney cell).

Data set [5] deals with H1N1 (influenza virus). The settings on record: H1N1 in host cell MDCK.
Data set [6] has as its system H3N2 (influenza virus). Description: microbe, parasite or virus in culture. The settings on record: Influenza A virus, H3N2, MDCK.
Data set [7] deals with H1N1 (influenza virus). Description: microbe, parasite or virus in culture. The note with it: Influenza A virus, H1N1, MDCK.
The subject of data set [8] is H7N9 (influenza virus). The data set is described as follows: microbe, parasite or virus in culture. The note with it: Influenza A virus, H7N9, MDCK.
Data set [9] has as its system H3N2 (influenza virus). The settings on record: H3N2 in host cell MDCK.
The test system of data set [10] is JEV (Japanese encephalitis virus). The data set is described as follows: Inhibition of viral replication (CPE) at cellular level, JEV in Vero. The note with it: for SI (TC50/IC50): JEV in host cell Vero; for IC50: Japanese encephalitis virus, Vero.
Data set [11] in a line: Determination of TC50 (half toxicity concentration) in RD cells. Type of data set: cell-based. The note with it: human, host cell RD, EV71 table.
In data set [12] the test system is H7N9 avian influenza virus. It is filed as in vivo. The settings on record: lethal dose H7N9 (1MLD50) nasal, Compound 16 10 mg/kg, Oseltamivir 20 mg/kg, intraperitoneal, once a day for first 5 days, FIG. 4.
Data set [13] is described as follows: in vitro. The note with it: African green monkey.
Data set [14] deals with EV71 (hand-foot-and-mouth virus). The data set is described as follows: microbe, parasite or virus in culture. The note with it: Enterovirus A.
Data set [15] in a line: in vitro. The note with it: dog.
For data set [16], the system named is Zika Virus. Description: Inhibition of viral replication (CPE) at cellular level, Zika Virus in Vero. The settings on record: for SI (TC50/IC50): Zika Virus in host cell Vero; for IC50: Zika virus, Vero.
Data set [17] concerns RSV (human respiratory syncytial virus). Description: Inhibition of viral replication (CPE) at cellular level, RSV in Vero. The note with it: for SI (TC50/IC50): RSV in host cell Vero; for IC50: human respiratory syncytial virus, Vero.
The mark [18] stands for this setting: TC50, host cell Vero, Dengue Virus 2 table.
Setting [19] is: TC50, host cell Vero, RSV table.
[20] abbreviates: TC50, host cell Vero, Zika Virus table.

With `O=C(O)c1ccccc1/C=N/Nc1nc(-c2ccccc2Cl)cs1` [Compound 16, (E)-4-(2-chlorophenyl)-2-(2-carboxybenzylidenehydrazino)thiazole], the “SI (TC50/IC50)” value in data set [1] is on record as above 41.7; in [2], 3.3; in data set [4], 167; in data set [5], above 100; in [9], above 250; in data set [10] it was 100. The “SI (TC50/IC50)” value in [16] worked out at 133; in data set [17] it was 4. For the same compound, the IC50 in data set [3] is around 2000 nM; in data set [4] it was 120 nM; in data set [6] it was 200 nM; in data set [7], 500 nM; in [8], 1200 nM; in [10] it was 200 nM. Moreover, the IC50 in [14] was found to be 300 nM; in data set [16], 150 nM; in data set [17], 5000 nM. The CC50 was 1000 nM in data set [11]; 20000 nM in [13] (setting [18]); 20000 nM in data set [13] (setting [19]); 20000 nM in data set [13] (setting [20]); above 50000 nM in data set [15]. Also, in data set [12], the “therapeutic effect, recovery in the body weight of infected mice” value was “therapeutic effects similar to the positive drug Oseltamivir”. For the same compound, the “inhibitory effects on human respiratory syncytial virus RSV” value in data set [17] (FIG. 3) is “a certain inhibitory effects”.

`O=C(O)c1cc(C(F)(F)F)ccc1/C=N/Nc1nc(-c2ccccc2Cl)cs1` [Compound 8-1]: the “SI (TC50/IC50)” value in data set [1] is recorded as 117; in [2] it was 10.5; in [4] it was 325; in [5], 138; in data set [9], 456; in data set [10], 156. For the same compound, the results for the “SI (TC50/IC50)” value in data set [16] and in data set [17] were 264 and 14, respectively. Moreover, the IC50 worked out at 200 nM in data set [4]; 250 nM in [6]; 890 nM in [7]; 860 nM in data set [8]; 230 nM in data set [10]; 190 nM in data set [14]. For the same compound, the figures for the IC50 in data set [16] and in data set [17] were 250 nM and 8890 nM, respectively. Moreover, the CC50 turned out to be 2000 nM in [11]; 36000 nM in [13]; 65000 nM in [13] (setting [18]); 123000 nM in data set [13] (setting [19]); 66000 nM in data set [13] (setting [20]); 114000 nM in data set [15] (TC50).

`CN(/N=C/c1ccc(C(F)(F)F)cc1C(=O)O)c1nc(-c2ccccc2Cl)cs1` [Compound 8, (E)-4-(2-chlorophenyl)-2-[1-methyl-2-(4-trifluoromethyl-2-carboxybenzylidene)hydrazino]thiazole]: the “SI (TC50/IC50)” value in data set [1] worked out at 66; in data set [2], 11; in [4], 211; in data set [5] it was 49; in data set [9] it was 233; in data set [10] it was 170. Besides, the results for the “SI (TC50/IC50)” value in data set [16] and in data set [17] were 158 and 5.5, respectively. Besides, the IC50 in [4] worked out at 90 nM; in data set [6] it was 210 nM; in data set [7] it was 630 nM; in data set [8] it was 590 nM; in data set [10], 100 nM; in data set [14], 90 nM. Besides, the IC50 in data set [16] is 120 nM; in [17], 5630 nM. Further, the CC50 in data set [11] amounted to 1000 nM; in [13], 17000 nM; in [13] (setting [18]), 19000 nM; in data set [13] (setting [19]) it was 31000 nM; in data set [13] (setting [20]) it was 19000 nM; in data set [15] (TC50) it was 49000 nM.

Consider `CCN(/N=C/c1ccccc1C(=O)O)c1nc(-c2ccccc2Cl)cs1` [Compound 2, (E)-4-(2-chlorophenyl)-2-[1-ethyl-2-(2-carboxybenzylidene)hydrazino]thiazole], for which the “SI (TC50/IC50)” value in data set [1] came to 8; in data set [2], 4.3; in data set [4] it was 68.6; in data set [5] it was 8; in data set [9], 15; in data set [10], 45.7. For the same compound, the entries for the “SI (TC50/IC50)” value in data set [16] and in [17] were 53 and 4, respectively. Also, the IC50 in data set [4] came out at 350 nM; in [6], 1500 nM; in data set [7], 3690 nM; in data set [8], 5730 nM; in data set [10], 350 nM; in data set [14], 230 nM. For the same compound, the IC50 in data set [16] was found to be 450 nM; in data set [17] it was 7690 nM. The CC50 was 1000 nM in [11]; 16000 nM in data set [13]; 24000 nM in [13] (setting [18]); 29000 nM in data set [13] (setting [19]); 24000 nM in data set [13] (setting [20]); 23000 nM in [15] (TC50).

Consider `O=C(O)c1cc(F)c(F)cc1/C=N/Nc1nc(-c2ccccc2Cl)cs1` [Compound 23-1], for which the “SI (TC50/IC50)” value in [1] stood at 152; in data set [2], 5.4; in data set [4], 200; in data set [5], 300; in data set [9], 477; in [10], 124. In addition, the “SI (TC50/IC50)” value turned out to be 262 in data set [16] and 19 in data set [17]. Moreover, the IC50 in [4] turned out to be 390 nM; in data set [6], 260 nM; in [7] it was 670 nM; in data set [8] it was 670 nM; in data set [10], 290 nM; in [14], 370 nM. Moreover, the figures for the IC50 in [16] and in data set [17] were 290 nM and 5670 nM, respectively. Besides, the CC50 in [11] amounted to 2000 nM; in data set [13] it was 36000 nM; in data set [13] (setting [18]), 78000 nM; in [13] (setting [19]), 101000 nM; in [13] (setting [20]), 76000 nM; in data set [15] (TC50) it was 124000 nM.
